One series concerns the target V600EBRAF (Homo sapiens, UniProt P15056, V600E). The series can be described thus: V600EBRAF kinase assay (MEK1/2 phosphorylation as endpoint). In kind it is biochemical. As to conditions: for IC50: isolated full length V600EBRAF kinase activity; for BRAF activity in words: BRAF IC50 assay. The protocol:
(§1) The biological activities of compounds 1a–p were assessed in three assays: • (1) Inhibition of the isolated ^V600EBRAF kinase activity (IC50 BRAF), measuring MEK1/2 phosphorylation as the endpoint.[15] […] We measured the IC50 BRAF values in this paper, since they represent the inhibition of BRAF function which we consider more meaningful than the binding of inhibitor to BRAF. • (2) Inhibition of ^V600EBRAF-dependent ERK phosphorylation in WM266.4 melanoma cells (IC50 pERK). • (3) Growth inhibition of WM266.4 melanoma cells measured by sulforhodamine-B (GI50 SRB).
(§2) These assays have been described by Niculescu-Duvaz et al.[15]

Series [1] relates to V600EBRAF-dependent ERK phosphorylation in WM266.4 melanoma cells. Briefly: Phospho-ERK IC50 assay in WM266.4 cells. In kind it is cell-based, human. As to conditions: for IC50: Homo sapiens, WM 266-4, 6 h incubation, read-out: IC50 ppERK. The procedure:
as §1
To determine the effect of compounds on BRAF activity in cells, WM266.4 cells were seeded at a density of 3 × 10^4 cells per well of a 96 well plate. The following day, test compounds were diluted into growth medium to 2× the desired final concentration and then added directly to the cells. After a 6 h incubation, the medium was removed and cells were fixed and permeabilized in 4% formaldehyde, 0.1% triton X-100 in PBS for 30 min. The wells were then blocked with 5% milk in PBS for 30 min at room temperature, followed by the addition of an antibody for phospho-ERK1/2 (Sigma, Dorset, UK) at […] in blocking solution. Plates were incubated for 3 h with shaking. Plates were washed three times with 0.1% Tween 20 using an ELx50 plate washer (BioTek, Winooski, USA). […] of a Europium-labelled anti-mouse secondary antibody (Perkin Elmer, Turku, Finland) was added to the wells in DELFIA assay buffer for 1 h. Plates were washed again and Enhancement solution was added to the wells and time resolved fluorescence was measured as instructed by the manufacturer after 20 min using a Spectramax M5 plate reader (Molecular Devices, Berkshire, UK). The plates were washed again and BCA protein assay reagent (Sigma, Dorset, UK) was added to the wells and incubated for 30 min at 37 °C. Absorbance at 570 nm was measured using a plate reader and used to normalize the fluorescence data. Inhibition of ERK phosphorylation was determined as a percentage of DMSO-treated cells and IC50 values were calculated using Prism (GraphPad Software, San Diego, USA).

For a further series, the system named is WM266.4 melanoma cells. The series can be described thus: Growth inhibition of WM266.4 cells by sulforhodamine-B (SRB). In kind it is cell-based, human. As to conditions: for GI50 / GI50 SRB activity in words: WM266.4 cells; for GI50: sulforhodamine-B. The procedure:
as §1, §2

A further series has as its target BRAF (Homo sapiens, UniProt P15056). Briefly: BRAF fluorescent ligand binding assay. As to conditions: alternative BRAF fluorescent ligand binding assay.
Series [2] can be described thus: PK assessment in mice after intraperitoneal administration. In kind it is in vivo, mouse. As to conditions: CD1 nu/nu female mice, intraperitoneal 4 mg/kg, cassette dosing. The procedure: The apparent clearance, half-life (t1/2) and maximal plasma concentration of a representative tricyclic pyrazole, compound 1h, were determined in vivo in CD1 nu/nu female mice following an intraperitoneal administration of 1h.
Female Crl:CD1-Foxn1nu mice at least six weeks of age bearing mutant BRAF WM266.4 human tumor xenografts were used for the PK analyses. The mice were dosed intraperitoneally (4 mg/kg, equivalent to ca. 8 μmol/kg, 10 ml/kg, in 10% ethanol:40% PEG:50% Gelofusine v/v) in a cassette with 4 other compounds. Samples were taken at 8 time-points between 15 min and 24 h. Three mice were utilized per time-point. They were placed under isoflurane anaesthesia and blood for plasma preparation was taken by terminal cardiac puncture into heparinized syringes. Plasma samples were snap frozen in liquid nitrogen and then stored at −70 °C prior to analysis. All procedures involving animals were performed in accordance with national Home Office regulations under the Animals (Scientific Procedures) Act 1986 and within guidelines set out by the Institute’s Animal Ethics Committee and the United Kingdom Coordinating Committee for Cancer Research’s ad hoc Committee on the Welfare of Animals in Experimental Neoplasia.

Structures are written as SMILES.

Sequence of V600EBRAF (P15056 whole entry V600E): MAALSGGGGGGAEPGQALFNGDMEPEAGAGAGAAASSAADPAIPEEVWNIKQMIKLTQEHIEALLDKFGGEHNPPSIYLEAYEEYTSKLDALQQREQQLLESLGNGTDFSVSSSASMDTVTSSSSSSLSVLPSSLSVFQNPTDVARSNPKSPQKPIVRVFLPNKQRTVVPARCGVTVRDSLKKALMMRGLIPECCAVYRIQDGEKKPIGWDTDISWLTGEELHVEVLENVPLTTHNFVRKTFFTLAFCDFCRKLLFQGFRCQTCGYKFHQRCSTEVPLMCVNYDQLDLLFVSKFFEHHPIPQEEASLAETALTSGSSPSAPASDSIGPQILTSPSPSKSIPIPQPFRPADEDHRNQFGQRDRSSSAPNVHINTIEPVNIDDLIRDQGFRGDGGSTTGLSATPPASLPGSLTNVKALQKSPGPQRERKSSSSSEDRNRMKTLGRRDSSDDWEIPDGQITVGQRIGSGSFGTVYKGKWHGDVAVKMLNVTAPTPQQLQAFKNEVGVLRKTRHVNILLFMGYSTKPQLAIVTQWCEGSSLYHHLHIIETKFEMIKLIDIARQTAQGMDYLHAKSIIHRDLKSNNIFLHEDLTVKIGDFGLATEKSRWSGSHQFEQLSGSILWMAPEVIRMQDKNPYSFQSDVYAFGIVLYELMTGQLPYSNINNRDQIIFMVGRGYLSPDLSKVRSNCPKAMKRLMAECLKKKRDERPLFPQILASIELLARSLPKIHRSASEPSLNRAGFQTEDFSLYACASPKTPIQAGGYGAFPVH
Sequence of BRAF (P15056 whole entry): as the sequence (P15056 whole entry V600E) above, with E600V counted along it

As to `CN(C)CCN1CCN(C(=O)c2cc(-c3ccc4c(c3)Cc3cn[nH]c3-4)c(-c3ccncc3)o2)CC1` [1l, [4-(2,4-Dihydro-indeno[1,2-c]pyrazol-6-yl)-5-pyridin-4-yl-furan-2-yl]-[4-(2-dimethylamino-ethyl)-piperazin-1-yl]-methanone], the IC50 was determined as 3600 nM against V600EBRAF and 740 nM in series [1]. The same molecule displayed a GI50 in the series with WM266.4 melanoma cells (Homo sapiens, WM 266-4) of 1610 nM.

For `Cc1c[nH]nc1-c1ccc(-c2nc(-c3ccc(OCCN(C)C)cc3)[nH]c2-c2ccncc2)cc1` [1b, Dimethyl-[2-(4-{5-[4-(4-methyl-1H-pyrazol-3-yl)-phenyl]-4-pyridin-4-yl-1H-imidazol-2-yl}-phenoxy)-ethyl]-amine], the IC50 was 1200 nM against V600EBRAF and 2020 nM in series [1]. In the series with WM266.4 melanoma cells (Homo sapiens, WM 266-4), this molecule displayed a GI50 of 3900 nM.

Regarding `O=C(c1cc(-c2ccc3c(c2)Cc2cn[nH]c2-3)c(-c2ccncc2)o1)N1CCOCC1` [1m, [4-(2,4-Dihydro-indeno[1,2-c]pyrazol-6-yl)-5-pyridin-4-yl-furan-2-yl]-morpholin-4-yl-methanone], on V600EBRAF, the IC50 amounted to 2150 nM. Further, in series [1], the “IC50 ppERK activity in words” value is “submicromolar activity” and the IC50 was 840 nM. Growth in the series with WM266.4 melanoma cells (Homo sapiens, WM 266-4) was halved (GI50) at 940 nM. Moreover, in the series with WM266.4 melanoma cells, the “GI50 SRB activity in words” value is “submicromolar activity”.

Turning to `CN(C)CCOc1ccc(-c2nc(-c3ccc4c(c3)CC3CC(=O)NN=C43)c(-c3ccncc3)[nH]2)cc1` (centres unmarked) [1g, 7-{2-[4-(2-Dimethylamino-ethoxy)-phenyl]-5-pyridin-4-yl-1H-imidazol-4-yl}-2,4,4a,5-tetrahydro-indeno[1,2-c]pyridazin-3-one], the IC50 is > 10000 nM against V600EBRAF and 100000 nM in series [1]. Moreover, in the series with WM266.4 melanoma cells (Homo sapiens, WM 266-4), the GI50 stood at 8900 nM.

As for `CN(C)CCOc1ccc(-c2nc(-c3ccc4c(c3)CCc3cn[nH]c3-4)c(-c3ccncc3)[nH]2)cc1` [1e, (2-{4-[5-(4,5-Dihydro-2H-benzo[g]indazol-7-yl)-4-pyridin-4-yl-1H-imidazol-2-yl]-phenoxy}-ethyl)-dimethyl-amine], the IC50 against V600EBRAF came out at 1840 nM; in series [1], 5800 nM.

Turning to `CN(C)CCOc1ccc(-c2nc(-c3ccc(-c4cc[nH]n4)cc3)c(-c3ccncc3)[nH]2)cc1` [1a, Dimethyl-[2-(4-{5-[4-(1H-pyrazol-3-yl)-phenyl]-4-pyridin-4-yl-1H-imidazol-2-yl}-phenoxy)-ethyl]-amine], the results for the IC50 (on V600EBRAF; in series [1]) were 1600 nM and 5800 nM, respectively. Halving of growth in the series with WM266.4 melanoma cells (Homo sapiens, WM 266-4) (GI50) required 7400 nM.

Regarding `O=C(c1cc(-c2ccc3c(c2)Cc2cn[nH]c2-3)c(-c2ccncc2)o1)N1CCNCC1` [1n, [4-(2,4-Dihydro-indeno[1,2-c]pyrazol-6-yl)-5-pyridin-4-yl-furan-2-yl]-piperazin-1-yl-methanone], the IC50 on V600EBRAF came to 2780 nM; in series [1] it was 970 nM. The molecule also came in with a GI50 in the series with WM266.4 melanoma cells (Homo sapiens, WM 266-4) of 1590 nM.

As for `CN(C)CCOc1ccc(-c2nc(-c3ccc4c(c3)Cc3nn[nH]c3-4)c(-c3ccncc3)[nH]2)cc1` [1i, (2-{4-[5-(3,8-Dihydro-indeno[1,2-d] [1,2,3]triazol-6-yl)-4-pyridin-4-yl-1H-imidazol-2-yl]-phenoxy}-ethyl)-dimethyl-amine], at V600EBRAF, the “BRAF activity in words” value is “inactive” and the IC50 is > 10000 nM. Also, the IC50 in series [1] is 4400 nM.

Regarding `CN(C)CCOc1ccc(-c2nc(-c3ccc(-c4n[nH]cc4Cl)cc3)c(-c3ccncc3)[nH]2)cc1` [1d, [2-(4-{5-[4-(4-Chloro-1H-pyrazol-3-yl)-phenyl]-4-pyridin-4-yl-1H-imidazol-2-yl}-phenoxy)-ethyl]-dimethyl-amine], the figures for the IC50 (against V600EBRAF; in series [1]) were 3700 nM and 10000 nM, respectively. In addition, halving of growth in the series with WM266.4 melanoma cells (Homo sapiens, WM 266-4) (GI50) required 4100 nM.

As for `CN(C)CCOc1ccc(-c2nc(-c3ccc4c(c3)Cc3cn[nH]c3-4)c(-c3ccncc3)[nH]2)cc1` [1h, (2-{4-[5-(2,4-Dihydro-indeno[1,2-c]pyrazol-6-yl)-4-pyridin-4-yl-1H-imidazol-2-yl]-phenoxy}-ethyl)-dimethyl-amine], the IC50 against V600EBRAF was 230 nM; in series [1], 1090 nM; with WM266.4 melanoma cells (Homo sapiens, WM 266-4, SRB cellular IC50, value in PK text), 1100 nM. The molecule further yielded a GI50 in the series with WM266.4 melanoma cells (Homo sapiens, WM 266-4) of 1150 nM. Besides, the Kd on BRAF turned out to be 6.1 nM. The half-life in series [2] (CD1 nu/nu (Crl:CD1-Foxn1nu), mouse, ip, plasma, read-out: half-life (T1/2) (converted)) was 3.9 h. Also, the Cmax in series [2] (CD1 nu/nu (Crl:CD1-Foxn1nu), mouse, ip, plasma, read-out: maximal plasma concentration (Cmax)) was found to be 5.8 µM. Also, in series [2] (apparent clearance), the “plasma clearance (CL)” value turned out to be 11 mL/min/kg.

For the molecule `CN(C)CCOc1ccc(-c2nc(-c3ccc4c(ccc5cn[nH]c54)c3)c(-c3ccncc3)[nH]2)cc1` [1f, (2-{4-[4-(1H-Benzo[g]indazol-7-yl)-5-pyridin-4-yl-1H-imidazol-2-yl]-phenoxy}-ethyl)-dimethyl-amine], the values for the IC50 (against V600EBRAF; in series [1]) were 1710 nM and 25000 nM, respectively. Also, the concentration for 50% growth inhibition (GI50) with WM266.4 melanoma cells (Homo sapiens, WM 266-4) is 3300 nM.

In the case of `CN1CCN(c2ccc(-c3nc(-c4ccc5c(c4)Cc4cn[nH]c4-5)c(-c4ccncc4)[nH]3)cc2)CC1` [1j, 6-{2-[4-(4-Methyl-piperazin-1-yl)-phenyl]-5-pyridin-4-yl-3H-imidazol-4-yl}-2,4-dihydro-indeno[1,2-c]pyrazole], on V600EBRAF, the “BRAF activity in words” value was “submicromolar activity” and the IC50 came to 240 nM. Besides, in series [1], the “IC50 ppERK activity in words” value is recorded as “submicromolar activity” and the IC50 is 580 nM. This molecule registered a GI50 with WM266.4 melanoma cells (Homo sapiens, WM 266-4) of 870 nM. Moreover, the “GI50 SRB activity in words” value in the series with WM266.4 melanoma cells was “submicromolar activity”.

Take `CN(C)CCOc1ccc(-c2nc(-c3ccc(-c4n[nH]cc4C#N)cc3)c(-c3ccncc3)[nH]2)cc1` [1c, 3-(4-{2-[4-(2-Dimethylamino-ethoxy)-phenyl]-5-pyridin-4-yl-3H-imidazol-4-yl}-phenyl)-1H-pyrazole-4-carbonitrile]: the results for the IC50 (against V600EBRAF; in series [1]) were > 10000 nM and > 100000 nM, respectively. This molecule gave a GI50 with WM266.4 melanoma cells (Homo sapiens, WM 266-4) of 11000 nM.

Take `CN(C)CCN1CCN(C(=O)c2cc(-c3ccc4c(c3)Cc3cnn(C)c3-4)c(-c3ccncc3)o2)CC1` [1p, [4-(2-Dimethylamino-ethyl)-piperazin-1-yl]-[4-(1-methyl-1,4-dihydro-indeno [1,2-c]pyrazol-6-yl)-5-pyridin-4-yl-furan-2-yl]-methanone]: the IC50 (at V600EBRAF; in series [1]) was > 10000 nM throughout.

For the molecule `CN1CCN(C(=O)c2cc(-c3ccc4c(c3)Cc3cn[nH]c3-4)c(-c3ccncc3)o2)CC1` [1o, [4-(2,4-Dihydro-indeno[1,2-c]pyrazol-6-yl)-5-pyridin-4-yl-furan-2-yl]-(4-methyl-piperazin-1-yl)-methanone], the figures for the IC50 (against V600EBRAF; in series [1]) were 7500 nM and 730 nM, respectively. The molecule further yielded a GI50 in the series on WM266.4 melanoma cells (Homo sapiens, WM 266-4) of 1910 nM.

As for `c1cc(-c2[nH]c(C3CCNCC3)nc2-c2ccc3c(c2)Cc2cn[nH]c2-3)ccn1` [1k, 6-(2-Piperidin-4-yl-5-pyridin-4-yl-3H-imidazol-4-yl)-2,4-dihydro-indeno[1,2-c]pyrazole], the IC50 against V600EBRAF is 1330 nM; in series [1], 4900 nM. The same molecule displayed a GI50 with WM266.4 melanoma cells (Homo sapiens, WM 266-4) of 36000 nM.

What is called IC50 is the concentration that gives 50% inhibition. By GI50 is commonly meant the concentration at which growth is held to half of that of the control. Usually Kd stands for the equilibrium constant for the complex coming apart. High values mean a looser complex, low ones a tighter complex.

Source of the values: article PMC2956513, “Novel tricyclic pyrazole BRAF inhibitors with imidazole or furan central scaffolds” (Bioorganic & Medicinal Chemistry, 2010).
